# Results from patent publication US20240075087A1, “COMPOSITIONS AND METHODS COMPRISING HEMP EXTRACT FOR THE TREATMENT OF ANIMALS IN NEED” (Portland Technology Holdings LLC, priority 2021, published 2024).
# What was measured:
# [1] = Single-dose oral pharmacokinetics of CBD in healthy dogs; type: in vivo; details: dog, serum
# Protocol: (§1) The single-dose oral pharmacokinetics of CBD and an assessment of safety and adverse effects during 12-week administration using a hemp-based product in healthy dogs and cats were determined in this study. […] More details about this study can be found in “Deabold, K. A.; Schwark, W. S.; Wolf, L.; Wakshlag, J. J., Single Dose Pharmacokinetics and Preliminary Safety Assessment with Use of CBD-Rich Hemp Nutraceutical in Healthy Dogs and Cats, Animals 2019, 9, 832, DOI 10.3390/ani9100832,” which is incorporated herein by reference in its entirety.
# [2] = Single-dose oral pharmacokinetics of CBD in healthy cats; type: in vivo; details: serum, single oral dose 2 mg/kg total CBD/CBDA
# Protocol: as §1
# [3] = tested on: D17 osteosarcoma cell line; assay: 48 hours MTT proliferation assay, D17; type: cell-based, canine; details: pure compound
# Protocol: 3-(4,5-Dimethylthaizol-2-yl)-2,5-diphenyltetrazolium bromide (MTT) assays are performed on all previously described cell lines; CMT12, HMPOS, D17, Abrams and 17-71. […] Cells are treated with vehicle (methanol or ethanol/DMSO mix) or various concentrations of the CBD, CBDA or CBD-rich hemp extract ranging from 0.42 to 20 μg/mL in serial dilution for 48 hours. MTT assays are performed after 48 hours of treatment by adding 20 μL of MTT dye ([…] filtered 5 mg/mL in phosphate-buffered saline [PBS]) to each well and incubating at 37° C. in 5% CO2 for 2 hours. The media is then aspirated, washed once with 200 μL of PBS and then solubilized in 200 μL of ethanol. Immediate analysis of the optical density of each well is performed using a spectrophotometric plate reader (Epoch; Biotek, Winooski, Vermont) at a wavelength of 570 nm as previously described (e.g., Vega-Avila E and Pugsley M K, An overview of colorimetric assay methods used to assess survival or proliferation of mammalian cells, Proc West Pharmacol Soc., 2011, 54, pp. 10-14 which is incorporated herein by reference in its entirety). The percent proliferating cells of control for each concentration is averaged and reported as a mean+/—SD from triplicate wells over three experiments.
# For CBD, CBDA and hemp extract concentrations needed to obtain a 50% inhibition of cell proliferation (IC50) are then calculated across experiments by Probit analysis using XLFit5 software (IDBS, Guildford, United Kingdom) for reporting the results for each cell line.
# 17-71 cells = assay: Trypan blue exclusion assay, 17-71; type: cell-based, canine; details: 48 hours, vehicle control 3±1%
# Protocol: (§2) The trypan blue exclusion assay is performed on canine primary dermal fibroblasts (CDF) because of the slow rate of proliferation and low metabolic activity of these normal canine cells, precluding productive MTT assays. The effects of CBD treatments are compared with the results obtained on the 17-71, CMT12 and D17 cell lines for comparative purposes. For the CDF cells, applied cell extracellular matrix (ABM) is applied overnight to 24-well tissue culture-treated plates (Applied Biological Materials [ABM], Richmond, BC, Canada). For all cell lines, cells are plated at a density of 5×10^3 cells per well and incubated until 60% confluent before treatment with methanol vehicle control, 3.75, 7.5, and 15 μg/mL of CBD to cells for 48 hours. Cells are then trypsinized, collected and centrifuged at 1900 g for 10 minutes. With the exception of the 17-71 cell line, cells are detached with Accumax (Invitrogen, Carlsbad, California). The cell pellet is resuspended in 0.1% trypan blue (Sigma Aldrich, St Louis, Missouri) in PBS solution, loaded on a Cell Countess disposable cell counting slide with automatic counting of all positively stained cells in the Countess II Cell Counter under identical settings for each cell line (Invitrogen; ThermoFisher Scientific, Carlsbad, California) using the same parameters for each cell line. All treatments are performed in triplicate and the percent of viable cells are averaged.
# D17 cells = assay: Trypan blue exclusion assay, D17; type: cell-based, canine; details: 48 hours, vehicle control 5±1%
# Protocol: as §2
# CMT12 and D17 cells = assay: LC3A/B immunofluorescence; type: cell-based, canine; details: 10 μg/mL CBD, 6 hours
# Protocol: CMT12 and D17 adherent cell lines are split into Nunc chamber slides (ThermoFisher Scientific, Rochester, New York) and the cells that are 70% confluent are treated for 6 hours with either methanol control or 10 μg/mL of CBD. Cells are fixed with 4% paraformaldehyde for 1 hour and then permeabilized with PBS containing 0.1% Triton X-100 for 30 minutes. Cells are then washed with PBS and incubated with bovine serum albumin (Sigma Aldrich, St. Louis, Missouri) for 30 minutes and then goat anti-serum (Vector Labs, Burlingame, California) for 1 hour and then washed twice with PBS for 10 minutes while rocking at room temperature. […] Coverslips are mounted using Vectrashield DAPI mounting media (Vector Labs, Burlingame, California) and the images are captured at the same fluorescence intensity for each image at 400 or 600 magnification and processed using an Olympus fluorescent microscope and DP controller software (Olympus Corp., Center Valley, Pennsylvania).
smiles,measurement,setting,value
"C=C(C)[C@@H]1CCC(C)=C[C@H]1c1c(O)cc(CCCCC)cc1O [CBD, cannabidiol]",Cmax,"[1]; single oral dose 2 mg/kg total CBD/CBDA (1 mg/kg CBD and 1 mg/kg CBDA), read-out: mean maximum CBD concentration (Cmax)",301 ng/mL
same,AUC,"[1]; single oral dose 2 mg/kg total CBD/CBDA, read-out: area under the curve (AUC)",1300 ng·h/mL
same,Tmax,"[1]; single oral dose 2 mg/kg total CBD/CBDA, read-out: time to maximal concentration (Tmax)",1.4 h
same,AUC,[2]; read-out: area under the curve (AUC),164 ng·h/mL
same,Cmax,[2]; read-out: mean maximum CBD concentration (Cmax),43 ng/mL
same,Tmax,[2]; read-out: time to maximal concentration (Tmax),2 h
same,IC50,"[3]; Canis lupus familiaris, read-out: IC50 (Probit)",4.1 µg/mL
same,concentrations that significantly diminished proliferation vs vehicle control,[3]; P<0.05,≥ 5 µg/mL
same,percent trypan blue positive cells,17-71 cells; 3.75 μg/mL CBD,7±4%
same,percent trypan blue positive cells,17-71 cells; 7.5 μg/mL CBD,27±8%
same,percent trypan blue positive cells,17-71 cells; 15 μg/mL CBD,55%±6%
same,percent trypan blue positive cells,D17 cells; 3.75 μg/mL CBD,4±2%
same,percent trypan blue positive cells,D17 cells; 7.5 μg/mL CBD,5±2%
same,percent trypan blue positive cells,D17 cells; 15 μg/mL CBD,35±4%
same,LC3A/B immunofluorescence,CMT12 and D17 cells,numerous discrete punctate intensely staining vesicles
